In general, melting point refers to the temperature of the solid-liquid transition.

From a melting point compilation (Tetko et al.; mined from patent text by program, amines drawn as free bases though some values may be those of a salt) come the findings set out here.

As to `COc1ccc(C(=O)NCCc2cccc(OCc3ccccc3)c2)cc1OC`, the melting point was in the range of 82 to 84 °C.

`CCOC(=O)C1=C(N)N=C(OCC)C(C(=O)OCC)C1c1cccc(C(=O)OCC)c1` (stereo not drawn) gave a melting point of 87 °C. In turn, `O=C(C=Cc1ccccc1)Oc1ccc(Br)cc1` came in with a melting point of 113 °C. In the case of `N#Cc1ccc(-c2cn(-c3ccc(C#N)cc3)c(SCCO)n2)cc1` it was greater than 300 °C; in that of `COc1cc2c(cc1OC)C(Cc1cc(I)c(N)c(I)c1)NCC2` (stereo not drawn), 169 to 171 °C; in that of `CC(C)c1cc(-c2ccc(F)cc2)nc(N(C)S(C)(=O)=O)n1`, 138 to 139 °C. As for `Cc1cccc(C)c1CS(=O)(=O)NCCc1c(CCCc2ccc(C(=O)O)cc2)c2cc(Cl)ccc2n1C(c1ccccc1)c1ccccc1`, the melting point was determined as 193 °C. Next, `CCCCSN(C)C(=O)Nc1ccc(Cl)c(Cl)c1`: 47 °C; `NC(=O)c1ccc(COc2cccc3c2CN(C2CCC(=O)NC2=O)C3=O)cc1` (stereo not drawn): 278 to 280 °C. In the case of `Nc1nccnc1C(=O)Nc1ccccc1Cl` it was 177 to 179 °C; in that of `N#CC1(Nc2ccccc2)CCCCC1`, 67 to 69 °C.

Regarding `Cc1nc(C(O)CNC(C)(C)C)ccc1OCc1ccccc1` (stereo not drawn), the melting point is 96 to 97 °C. In the case of `CC(=O)NC[C@H]1CN(c2cc(F)c(N3CCS(=O)(=O)CC3)c(F)c2)C(=O)O1` it was 187 to 190 °C; in that of `c1ccc2c(c1)cc1n2CC2(CC1)CO2` (stereo not drawn), 104 to 107 °C; in that of `O=C(c1ccccc1)c1ccncc1Cl`, 49 to 51 °C. Next, `CC(C)c1ccc(S(=O)(=O)n2c(C(O)c3cccc(C(=O)O)c3)cc3cc(Cl)ccc32)cc1` (stereo not drawn): 97 °C; `CS(=O)(=O)c1ccc(Oc2cc(OCc3cccc(Cl)n3)c3[nH]c(C4=NCC(CC(N)=O)S4)cc3c2)cc1` (stereo not drawn): 147 to 148 °C; `COC(=O)C(=CN(C)C)N(C)c1nccc(-c2ccccc2)n1`: 101 °C.

Regarding `Cc1c(Cl)nnc(Cl)c1C(C)(C)CCl`, the melting point is 56 to 58 °C. As for `NC(=O)c1cc(C(F)(F)F)cc(F)c1F`, the melting point lay within 128 to 130 °C. In the case of `CC(C)(C(=O)c1cccnc1)c1ccc(Cl)cc1Cl` it was 103 to 104 °C; in that of `CC(C)(C)OC(=O)Nc1ccc(-c2ccc(F)cc2)cc1[N+](=O)[O-]`, 155 to 167 °C.

`CCCc1c(OCc2cccc(C=CC(=O)O)c2)ccc(C(C)=O)c1O`: the melting point was 195 to 196 °C. Turning to `N#Cc1cccc(N2Cc3ccccc3CN(C3CCNCC3)C2=O)c1`, the melting point was determined as 116 °C. Take `COc1ccc2c(C(=O)C=[N+]=[N-])nn(Cc3ccc(Cl)c(Cl)c3)c(=O)c2c1`: the melting point is 129 to 130 °C. In the case of `O=C1NC(=O)C(c2ccc(Cl)c(Cl)c2)N1` (stereo not drawn) it was 223 to 225 °C; in that of `CN(c1cccc2cc(C(N)=O)[nH]c12)S(=O)(=O)c1cccs1`, 244 to 245 °C; in that of `CCOCc1cnc(NC(=O)C(Cc2ccc(F)cc2)c2ccc(S(C)(=O)=O)cc2)cn1` (stereo not drawn), 99 to 100 °C. Next, `O=C(C=Cc1cccnc1)NCCCCC1CCN(C2c3ccccc3CSc3ccccc32)CC1` (stereo not drawn): 89 to 91 °C; `O=C(NCCOc1ccc(CC(Oc2ccccc2)C(=O)O)cc1Cl)c1ccc(-c2ccccn2)cc1` (stereo not drawn): 59 to 61 °C; `CN1CCC23c4c5cccc4OC2C(=O)CCC3(O)C1C5` (stereo not drawn): 223 to 225 °C. In the case of `COc1ccc(C2=NN(C3CCN(CCCCCCN4C(=O)c5ccccc5C4=O)CC3)C(=O)[C@@H]3CC=CC[C@H]23)cc1OC` it was 39 to 44 °C; in that of `OC(c1ccc(Cl)cc1)c1cccc(Br)n1` (stereo not drawn), 64.5 to 65 °C. For the compound `COc1cccc(-c2ccc3c(c2)C(C)(C)OC(=O)N3)c1`, the melting point was in the range of 164 to 165 °C.

In turn, `C#CC1(c2ccc(OC)c(OC3CCCC3)c2)CCC2(CC1)OCCO2` showed a melting point of 53.5 to 55 °C.

In turn, `Cc1ccccc1C(=O)Nc1ccc(C(=O)N2CCCC(C)(O)c3ccccc32)cc1` (stereo not drawn) came in with a melting point of 204 to 205 °C. In the case of `CC(C)(C)OC(=O)NCCOc1noc2c(C#N)cccc12` it was 91 to 92 °C. In the case of `CC(c1oc2ccc(F)cc2c(=O)c1-c1cccc(F)c1)n1cnc2c(N)ncnc21` (stereo not drawn) it was 252 to 255 °C; in that of `COC(=O)c1ncn2c3cccc(Cl)c3c(=O)n(C)c12`, 210 to 220 °C; in that of `Clc1ccc2c(NNc3ccccc3)c3c(nc2c1)CCSC3`, 201 to 202 °C. As to `CN(C)c1ccc(C(=O)C(O)c2cccc(F)c2)cc1` (stereo not drawn), the melting point was 147 to 149 °C. Next, `N#Cc1ccc(C(=C2CCOC2=O)n2ccnc2)cc1`: 194 to 197 °C; `CCCCCCCCCCCCCCCCCCCC(=O)Nc1ccc(NC(=O)NS(=O)(=O)c2ccc3ccccc3c2)cc1`: 179 °C; `Cc1nc2c3c(c(CO)cc2n1C)CCC(c1ccccc1)O3` (stereo not drawn): 279 to 281 °C. In the case of `O=C(C1CC1)C(C(O)C(Cl)(Cl)Cl)n1cncn1` (stereo not drawn) it was 173 to 175 °C; in that of `CN1C(=O)C2(COc3cc4c(cc32)OCCO4)c2c(C#N)cccc21` (stereo not drawn), 196 to 197 °C. `Cc1c(Oc2c(F)cc(C(F)(F)F)cc2Cl)nn(C(=O)OC(C)(C)C)c1C` returned a melting point of 138 to 139 °C. `CCCCCCCCC(=N)NC(=S)Nc1ccc(Cl)cc1` came in with a melting point of 102 to 103 °C.

`CCn1nc(C(C)C)c2c1C(=NC#N)NCC(c1ccccc1)=N2` showed a melting point of 222 °C. For `COc1ccc(CNc2nc(Cl)ccc2C=O)cc1Cl`, the melting point fell in the range of 134 to 138 °C. As to `O=C(NCc1cccnc1)c1cc(-n2cnn(Cc3ccc(F)cc3)c2=O)[nH]n1`, the melting point was 235 to 236 °C. In the case of `CCOC(=O)C(C)(C)Oc1ccc(-c2ccc(CCNC(=O)c3c(OC)cccc3OC)cc2)cc1` it was less than 20 °C; in that of `O=C(NN1CCCCC1)c1nc(-c2ccc(Cl)cc2Cl)n(-c2ccc(Cl)cc2)c1CF`, 162 to 163 °C.

As to `CC(O)(Cc1cncs1)c1ccc(Cl)cc1Cl` (stereo not drawn), the melting point turned out to be 164 °C. `CNC(=O)c1ccc2c(c1)c(-c1cc3cccnc3[nH]1)cn2C` gave a melting point of 186 °C.

Turning to `CCCCCCCCOC(=O)/C=C/c1ccccc1C1C(C(=O)OCC)=C(C)NC(C)=C1C(=O)OCC`, the melting point lay within 110 to 112 °C.

As to `CC(C)(C)OC(=O)CN(C(=O)CN1C(=O)c2ccccc2C1=O)c1ccccc1Cc1ccccc1`, the melting point came to 190 °C. Compound `CCc1nc2cc(/C=C/C(=O)NO)ccc2c(=O)n1CCc1ccccc1` registered a melting point of 209 to 211 °C. Next, `CN(C(=O)c1ccccc1NC(=O)CN1C(=O)c2ccccc2C1=O)c1ccccc1`: 138 °C; `COCCOCCOCCOc1ccc(-c2nc(C(=O)Nc3nccs3)c(-c3ccc(Cl)cc3)[nH]2)cc1`: 120 to 122 °C.

For the compound `CS(=O)(=O)NC(=O)CC1(c2ccc(OCc3ccc4ccccc4n3)cc2)CCCC1`, the melting point was 75 °C. Turning to `O=c1c2ccccc2nc(-c2cc(-c3ccc(Cl)cc3)c(N3CCOCC3)s2)n1-c1ccc(Cl)cc1`, the melting point was 240 to 243 °C.

`CCOC(=O)C1CN(c2ccccc2)C(=O)C1=O` (stereo not drawn) registered a melting point of 153 to 155 °C.

`O=C1c2ccccc2C(=O)N1CC(=O)N1c2ccccc2N(Cc2ccc3ccccc3c2)C(=O)C2CCCC21` (stereo not drawn) had a melting point of 238 to 239 °C. The compound `CCOC(=O)Nc1nc(C(=NOC)C(=O)OCC)ns1` returned a melting point of 108 to 110 °C. In the case of `O=C(O)Cn1c(-c2cccc(Br)c2)nc2cccnc21` it was 247 to 249 °C; in that of `CS(=O)(=O)c1ccc(NC(=O)c2ccccc2SSc2ccccc2C(=O)Nc2ccc(S(C)(=O)=O)cc2)cc1`, 236 to 238 °C. Next, `CCn1cc(C(=O)O)c(=O)c2cc(F)c(N3CCN(c4ccccc4OC)CC3)c(OC(F)F)c21`: 219 to 222 °C; `CSc1c(C(Cc2ccccc2)C(=O)O)cc(C)c2c1[nH]c1ccccc12` (stereo not drawn): 186 to 187 °C; `CCCc1c(OCCCC#CCO)ccc(C(C)=O)c1O`: 88 to 90 °C.

Compound `CN(CCOc1ccc([N+](=O)[O-])cc1)c1ccncc1` showed a melting point of 88 to 89 °C. `CCOC(=O)c1cc2c(Cl)cc(Cl)cc2[nH]1`: the melting point worked out at 180 °C.

In the case of `CCCCNc1cc(Cl)c(S(C)(=O)=O)cc1C(=O)O`, the melting point was in the range of 187 to 189 °C. In the case of `Cc1cccc(-c2nccc(O)n2)c1`, the melting point was 148 to 150 °C.

As for `CCCCCCCCCCCCCCCCCCOc1cccc(C(=O)C(=O)OC)c1`, the melting point was 50 to 52 °C. Next, `CC(=O)Nc1ccc2c(c1)S(=O)(=O)N=C(NC(C)C)N2`: 260 to 262 °C; `Cn1cc(-c2cc(-c3cnc(N)c(C(F)(F)F)c3)ccn2)n(-c2ccc(C(C)(C)C#N)cc2)c1=O`: 195 °C. In the case of `COc1ccc2c(c1)C(=O)NC(C(Cl)(Cl)Cl)O2` (stereo not drawn) it was 162 to 165 °C; in that of `CCOC(=O)C1CCN(c2ccc(N)cc2C#N)CC1`, 98 °C; in that of `CCCCCCc1ccc(CCc2cc3c(s2)NC(=S)CN=C3c2ccccc2Cl)cc1`, 140 to 145 °C. In the case of `CC(C)(C)c1ccc(C(=O)N[C@H]2CC[C@H](CCN3CCC(c4cccc5c4CCO5)CC3)CC2)cc1` it was 208 °C; in that of `O=C(NCCc1ccccn1)Nc1ccccc1[N+](=O)[O-]`, 182 °C. For the compound `CCN1C(=O)Cc2cc(C(=O)OC)ccc21`, the melting point was in the range of 97 to 98 °C.

`COC(=O)NS(=O)(=O)c1ncccc1C(F)(F)F` returned a melting point of 128 to 129 °C.

For the compound `CS(=O)(=O)c1ccc(-c2[nH]c(SCc3ccc4ccccc4n3)nc2-c2ccc(F)cc2)cc1`, the melting point fell in the range of 179 to 182 °C. The compound `COc1cccc2c3c(c(=O)[nH]c12)CCCN3c1ccccc1C` returned a melting point of 203 to 205 °C. In turn, `O=C(NC/C=C/c1ccccc1)c1cccs1` showed a melting point of 110 °C. Next, `COCC(=O)[C@H](Cc1ccccc1)NC(=O)[C@H](CC(C)C)NC(=O)OCc1ccccc1`: 87 to 92 °C.
